In PubChem BioAssay (NCI):
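Compound exposure: 48 hours, 5 concentrations, 96-well plates. The concentration for 50% growth inhibition is given as GI50. TGI marks complete inhibition of growth.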

Legend:
P388/ADR leukemia = test: NCI tumour cell line growth inhibition, 48 h
SN12K1 renal = test: NCI tumour cell line growth inhibition, 48 h

O=C(O)C1(C(=O)O)CCC1.[NH2-].[NH2-].[Pt+2]
GI50 (P388/ADR leukemia): 33.3 µM | TGI (P388/ADR leukemia): 218 µM | GI50 (SN12K1 renal): 107 µM | TGI (SN12K1 renal): 185 µM
